Measured values reported in US20250051275A1, “PYRROLE DERIVATIVE OR PHARMACEUTICALLY OR SITOLOGICALLY ACCEPTABLE SALTS THEREOF, AND COMPOSITION FOR PREVENTION, AMELIORATION OR TREATMENT OF GASTROINTESTINAL DISORDERS COMPRISING SAME AS ACTIVE INGREDIENT” (HANA PHARM CO., LTD., priority 2021, published 2025).
pIC50: −log10 of the molar value. Read-outs that look alike come from different tables or passages of the source.

How the values were obtained:
[1] = target: proton pump (H+/K+-ATPase) (Sus scrofa (Pig), UniProt P19156); assay: Inhibitory activity on proton pump (H+/K+-ATPase) activity; format: biochemical; details: porcine gastric mucosal microsomes, 5 mM KCl, pH 6.4; for pIC50: read-out: Proton pump inhibitory activity (IC50); for IC50: read-out: Proton pump inhibitory activity (IC50, nM), class symbol
Procedure: The compounds indicated in the above examples were tested for their inhibitory activity on proton pump (H+/K+-ATPase) activity as follows by applying the method disclosed in the literature. According to the methods of Nobuyuki Takahashi and Yukinori Take [J Pharmacol Exp Ther. 2018 February; 364(2):275-286], the gastric mucosal microsome fraction was isolated from the porcine stomach. The stomach isolated from the pig was washed first with tap water, only the fundus was cut, and then washed (a second time) with cold PBS. The gastric mucosa was separated by scraping, homogenized with 250 mM sucrose solution, and centrifuged at 20,000 g at 4° C. for 30 minutes. Only the supernatant was centrifuged at 115,000 g at 4° C. for 30 minutes, and the precipitate was suspended in 250 mM sucrose solution, added to cover with 7% Ficoll solution, and centrifuged at 135,000 g at 4° C. for 60 minutes. The microsome fraction formed at the interface was recovered and suspended in 250 mM sucrose solution, and centrifuged at 135,000 g, 4° C. for 60 minutes, and the precipitate was dissolved in 0.9% NaCl. The isolated gastric mucosal microsome fraction was quantified by using the Bicinchoninic Acid (BCA) kit (Thermo).
60 μl of enzyme reaction solution (a test compound at a given concentration, […] of gastric mucosal microsomes, 3 mM of MgSO4, 5 mM of KCl, 40 mM of Tris-HCl pH 6.4, and 0.5 mM of adenosine triphosphate) was added to each well of a 96-well plate and reacted at 37° C. for 60 minutes, and 30 μl of 10% SIDS was added to stop the enzyme reaction. 200 μl of detection solution (in which 10% L-ascorbic acid with pH 5.0 was mixed with 35 mM of ammonium molybdate tetrahydrate/15 mM of zinc acetate with pH 5.0 at the ratio of 4:1) was added and reacted at 37° C. for 30 minutes, and the absorbance value was measured at 750 nm by using a microplate reader (MULTISKAN GO, Thermo). The inhibition rate of proton pump activity was expressed as I050, which is 50% inhibition of enzyme activity, by using GraphPad Prism 5. In Table 1 below, an I050 value of 100 nM or less is indicated by +++, an I050 value of 101 to 200 nM is indicated by ++, and an I050 value of above 200 nM is indicated by +.

[2] = system: human gastric cancer cells (AGS Cells); assay: MTS assay, inhibition of proliferation of human gastric cancer cells (AGS Cells); format: cell-based; details: 48 hours; for pIC50: read-out: Proliferation inhibitory effect of gastric cancer cells (IC50); for IC50: read-out: Proliferation inhibitory effect of gastric cancer cells (IC50, μM), class symbol
Procedure: To examine the effect of inhibiting the proliferation of the compounds indicated in the examples of the present invention on human gastric cancer cells (AGS Cells), MTS Assay experiments were in vitro performed. AGS cells were cultured in a 5% CO2 incubator at 37° C. by using RPMI 1640 medium containing 1% penicillin-streptomycin and 10% fetal bovine serum. The cells in culture were separated with using 0.25% Trypsin-0.02% EDTA every 3 to 4 days and subcultured.
For the experiment, the cultured cells were treated with 0.25% Trypsin-0.02% EDTA solution, the suspended cells were centrifuged at 1,200 rpm for 5 minutes, the supernatant was discarded, a culture medium was added thereto, and a cell suspension was made with the culture medium. Using a hemocytometer, 10,000 cells per well were dispensed into 96-well plates and cultured. After 24 hours, when the cells attached to the plate, the culture medium was discarded, and the cells were treated with new culture media prepared by concentration (test concentrations: 500 μm, 250 μm, 125 μm, 63 μm, 31 μm, 16 μm, 8 μm, 4 μm, and 2 μm) and cultured in a CO2 incubator for 48 hours. After treating with an MTS solution, the cells were incubated in a CO2 incubator for 1 hour, and the absorbance was measured at 490 nm by using a microplate reader device. The cell proliferation inhibition rate was expressed as IC50, which is 50% inhibition of cell proliferation, using GraphPad Prism 5.
In Table 2 below, the IC50 value is indicated as “+++” for 0 to 50 μM, “++” for 51 to 100 μM, and “+” for 101 to 400 μM.

[3] = Storage stability (related substance identification test); format: physicochemical; details: for storage stability: stored at −2 to 8° C., in % (unit assumed)
Source text: An attempt was made to evaluate the storage stability over time of the compound of Example 7 of the present invention and the compound of Comparative Example 1 (which is the deuterium-unsubstituted form of the compound of Example 7) depending on the presence of deuterium substitution.

Chain of proton pump (H+/K+-ATPase) (P19156 2-1034): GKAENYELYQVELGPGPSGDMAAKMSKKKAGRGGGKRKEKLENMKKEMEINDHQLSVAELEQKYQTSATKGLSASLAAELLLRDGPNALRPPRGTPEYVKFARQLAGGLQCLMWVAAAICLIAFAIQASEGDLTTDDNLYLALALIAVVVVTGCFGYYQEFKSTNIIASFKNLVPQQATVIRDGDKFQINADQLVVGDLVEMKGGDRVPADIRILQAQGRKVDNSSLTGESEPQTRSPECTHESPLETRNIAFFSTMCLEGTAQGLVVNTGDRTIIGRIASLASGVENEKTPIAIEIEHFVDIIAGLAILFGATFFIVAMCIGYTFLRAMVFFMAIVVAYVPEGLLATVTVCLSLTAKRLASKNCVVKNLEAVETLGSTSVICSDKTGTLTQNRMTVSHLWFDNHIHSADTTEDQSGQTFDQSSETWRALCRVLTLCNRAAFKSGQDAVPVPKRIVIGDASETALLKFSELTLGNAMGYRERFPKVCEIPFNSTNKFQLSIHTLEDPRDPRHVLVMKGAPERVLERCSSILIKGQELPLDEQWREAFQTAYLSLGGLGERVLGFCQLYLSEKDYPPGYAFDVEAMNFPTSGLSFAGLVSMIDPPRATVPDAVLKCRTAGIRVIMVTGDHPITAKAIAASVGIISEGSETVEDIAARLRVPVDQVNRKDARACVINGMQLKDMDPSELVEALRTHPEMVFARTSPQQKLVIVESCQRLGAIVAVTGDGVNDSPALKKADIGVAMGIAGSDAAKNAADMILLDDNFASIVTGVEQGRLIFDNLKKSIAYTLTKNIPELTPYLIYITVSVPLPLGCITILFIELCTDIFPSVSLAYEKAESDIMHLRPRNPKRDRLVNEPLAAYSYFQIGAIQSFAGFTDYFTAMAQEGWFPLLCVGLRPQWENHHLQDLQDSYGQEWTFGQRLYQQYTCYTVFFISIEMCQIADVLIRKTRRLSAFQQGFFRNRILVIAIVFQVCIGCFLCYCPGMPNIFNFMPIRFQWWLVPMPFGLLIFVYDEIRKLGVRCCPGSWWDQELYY
Chain of proton pump (H+/K+-ATPase) (P18434 whole entry partner): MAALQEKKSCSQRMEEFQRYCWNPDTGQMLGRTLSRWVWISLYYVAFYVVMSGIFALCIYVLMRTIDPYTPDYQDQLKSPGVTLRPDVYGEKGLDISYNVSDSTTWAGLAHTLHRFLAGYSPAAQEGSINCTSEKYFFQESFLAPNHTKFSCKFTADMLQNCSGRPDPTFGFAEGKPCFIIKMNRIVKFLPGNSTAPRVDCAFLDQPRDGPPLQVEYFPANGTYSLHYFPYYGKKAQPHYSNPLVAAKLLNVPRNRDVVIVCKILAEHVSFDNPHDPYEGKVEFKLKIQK

With [2H]C([2H])([2H])NCc1cc(-c2ccccc2F)n(S(=O)(=O)c2ccc(Cl)cc2)c1 [Example 6, N-((1-((4-chlorophenyl)sulfonyl)-5-(2-fluorophenyl)-1H-pyrrol-3-yl)methyl)methan-d3-amine] the pIC50 [1] was 7.59, the IC50 [1] was ≤ 100 nM and the pIC50 ([2]; Homo sapiens) was 4.66. For the same molecule, the IC50 ([2]; Homo sapiens) was < 50 µM.
For [2H]C([2H])([2H])NCc1cc(-c2ccc(F)cc2F)n(S(=O)(=O)c2ccc(Br)cc2)c1 [Example 13, N-((1-((4-bromophenyl)sulfonyl)-5-(2,4-difluorophenyl)-1H-pyrrol-3-yl)methyl)methan-d3-amine], the pIC50 ([2]; Homo sapiens) was 4.85 and the IC50 ([2]; Homo sapiens) was < 50 µM.
In the case of [2H]C([2H])([2H])NCc1cc(-c2cccc(F)c2)n(S(=O)(=O)c2ccc(Cl)cc2)c1 [Example 10, N-((1-((4-chlorophenyl)sulfonyl)-5-(3-fluorophenyl)-1H-pyrrol-3-yl)methyl)methan-d3-amine], the pIC50 [1] was 7.22 and the IC50 [1] was ≤ 100 nM.
In the case of N.N.[Cl][Pt][Cl] [Control Drug 3 (Cisplatin), diamminedichloridoplatinum(II), reference compound], the pIC50 [2] was 4.72 and the IC50 [2] was < 50 µM.
With [2H]C([2H])([2H])NCc1cc(-c2ccccc2F)n(S(=O)(=O)c2ccc(C)cc2)c1 [Example 2, N-((5-(2-fluorophenyl)-1-tosyl-1H-pyrrol-3-yl)methyl)methan-d3-amine] the pIC50 [1] was 7.17, the IC50 [1] was ≤ 100 nM and the pIC50 ([2]; Homo sapiens) was 4.76. The IC50 ([2]; Homo sapiens) was < 50 µM.
In the case of [2H]C([2H])([2H])NCc1cn(S(=O)(=O)c2ccc(OC)nc2)c(-c2ccc(F)cc2F)c1OC [Example 37, N-((5-(2,4-difluorophenyl)-4-methoxy-1-((6-methoxypyridin-3-yl)sulfonyl)-1H-pyrrol-3-yl)methyl) methane-d3-amine], the pIC50 [1] was 7.06 and the IC50 [1] was ≤ 100 nM.
In the case of CNCc1cc(-c2ccccc2F)n(S(=O)(=O)c2ccc(F)cc2)c1 [Comparative Example 1, reference compound], the “storage stability, Results” value ([3]; stored at −2 to 8° C. for 3 months) was “Unstable”, the storage stability ([3]; 1st week) was 90.61 and the storage stability ([3]; 2nd week) was 81.40. It also gave a storage stability ([3]; 3 months) of 53.8, a storage stability ([3]; 3rd week) of 76.47 and a storage stability ([3]; 4th week) of 70.39. It also gave a storage stability ([3]; Initial) of 97.99.
In the case of [2H]C([2H])([2H])NCc1cc(-c2ccc(F)cc2)n(S(=O)(=O)c2ccc(F)cc2)c1 [Example 24, N-((5-(4-fluorophenyl)-1-((4-fluorophenyl)sulfonyl)-1H-pyrrol-3-yl)methyl)methan-d3-amine], the pIC50 ([2]; Homo sapiens) was 4.38 and the IC50 ([2]; Homo sapiens) was < 50 µM.
With [2H]C([2H])([2H])NCc1cn(S(=O)(=O)c2ccc(OC)nc2)c(-c2c(F)cc(F)cc2F)c1OC [Example 40, N-((4-methoxy-1-((6-methoxypyridin-3-yl)sulfonyl)-5-(2,4,6-trifluorophenyl)-1H-pyrrol-3-yl)methyl)methane-d3-amine] the pIC50 [1] was 7.19 and the IC50 [1] was ≤ 100 nM.
With [2H]C([2H])([2H])NCc1cc(-c2ccccc2F)n(S(=O)(=O)c2ccc(Br)cc2)c1 [Example 5, N-((1-((4-bromophenyl)sulfonyl)-5-(2-fluorophenyl)-1H-pyrrol-3-yl)methyl)methan-d3-amine] the pIC50 [1] was 7.44 and the IC50 [1] was ≤ 100 nM.
For [2H]C([2H])([2H])NCc1cn(S(=O)(=O)c2cccnc2)c(-c2c(F)cc(F)cc2F)c1OC [Example 39, N-((4-methoxy-1-(pyridin-3-ylsulfonyl)-5-(2,4,6-trifluorophenyl)-1H-pyrrol-3-yl)methyl)methan-d3-amine], the pIC50 [1] was 7.42 and the IC50 [1] was ≤ 100 nM.
In the case of [2H]C([2H])([2H])NCc1cc(-c2cccc(F)c2)n(S(=O)(=O)c2ccc(OC)cc2)c1 [Example 11, N-((5-(3-fluorophenyl)-1-((4-methoxyphenyl)sulfonyl)-1H-pyrrol-3-yl)methyl)methan-d3-amine], the pIC50 [1] was 7.12 and the IC50 [1] was ≤ 100 nM.
With [2H]C([2H])([2H])NCc1cc(-c2ccccc2F)n(S(=O)(=O)c2ccc(OC)cc2)c1 [Example 3, N-((5-(2-fluorophenyl)-1-((4-methoxyphenyl)sulfonyl)-1H-pyrrol-3-yl)methyl)methan-d3-amine] the pIC50 [1] was 7.32, the IC50 [1] was ≤ 100 nM and the pIC50 ([2]; Homo sapiens) was 5.46. The IC50 ([2]; Homo sapiens) was < 50 µM.
For [2H]C([2H])([2H])NCc1cc(-c2ccc(F)cc2)n(S(=O)(=O)c2ccc(Br)cc2)c1 [Example 25, N-((1-((4-bromophenyl)sulfonyl)-5-(4-fluorophenyl)-1H-pyrrol-3-yl)methyl)methan-d3-amine], the pIC50 ([2]; Homo sapiens) was 4.61 and the IC50 ([2]; Homo sapiens) was < 50 µM.
For [2H]C([2H])([2H])NCc1cc(-c2ccccc2F)n(S(=O)(=O)c2ccc(C#N)cc2)c1 [Example 4, 4-((2-(2-fluorophenyl)-4-(((methyl-d3)amino)methyl)-1H-pyrrol-1-yl)sulfonyl)benzonitrile], the pIC50 [1] was 7.05, the IC50 [1] was ≤ 100 nM and the pIC50 ([2]; Homo sapiens) was 4.49. For the same molecule, the IC50 ([2]; Homo sapiens) was < 50 µM.
For [2H]C([2H])([2H])NCc1cc(-c2cccc(F)c2)n(S(=O)(=O)c2ccc(C#N)cc2)c1 [Example 22, 4-((2-(3-fluorophenyl)-4-(((methyl-d3)amino)methyl)-1H-pyrrol-1-yl)sulfonyl)benzonitrile], the pIC50 ([2]; Homo sapiens) was 4.65 and the IC50 ([2]; Homo sapiens) was < 50 µM.
For [2H]C([2H])([2H])NCc1cc(-c2ccccc2F)n(S(=O)(=O)c2ccc(OC(F)(F)F)cc2)c1 [Example 8, N-((5-(2-fluorophenyl)-1-((4-(trifluoromethoxy)phenyl)sulfonyl)-1H-pyrrol-3-yl)methyl)methan-d3-amine], the pIC50 [1] was 7.29, the IC50 [1] was ≤ 100 nM and the pIC50 ([2]; Homo sapiens) was 4.91. For the same molecule, the IC50 ([2]; Homo sapiens) was < 50 µM.
With [2H]C([2H])([2H])NCc1cc(-c2ccc(F)cc2)n(S(=O)(=O)c2ccc(Cl)cc2)c1 [Example 26, N-((1-((4-chlorophenyl)sulfonyl)-5-(4-fluorophenyl)-1H-pyrrol-3-yl)methyl)methan-d3-amine] the pIC50 ([2]; Homo sapiens) was 4.88 and the IC50 ([2]; Homo sapiens) was < 50 µM.
In the case of [2H]C([2H])([2H])NCc1cc(-c2ccc(F)cc2F)n(S(=O)(=O)c2ccc(OC)cc2)c1 [Example 17, N-((5-(2,4-difluorophenyl)-1-((4-methoxyphenyl)sulfonyl)-1H-pyrrol-3-yl)methyl)methan-d3-amine], the pIC50 [1] was 7.08 and the IC50 [1] was ≤ 100 nM.
In the case of [2H]C([2H])([2H])NCc1cc(-c2ccc(F)cc2F)n(S(=O)(=O)c2ccc(C)cc2)c1 [Example 16, N-((5-(2,4-difluorophenyl)-1-tosyl-1H-pyrrol-3-yl)methyl)methane-d3-amine], the pIC50 [1] was 7.09 and the IC50 [1] was ≤ 100 nM.
Work on COc1ccc2nc([S@@+]([O-])Cc3ncc(C)c(OC)c3C)[nH]c2c1 [Control Drug 2 (Esomeprazole), 6-methoxy-2-[(S)-(4-methoxy-3,5-dimethylpyridin-2-yl)methylsulfinyl]-1H-benzimidazole, reference compound] yielded a pIC50 ([2]; Homo sapiens) of 3.71 and an IC50 ([2]; Homo sapiens) of 101 to 400 µM.
